Measured values as given in patent EP3117830A1, “ANTIBACTERIAL PEPTIDES, AND USES THEREOF” (Nuritas Limited, priority 2015, dated 2017).
Like-named read-outs stand apart in the source and are kept apart here. No end group written: not given here.

Key:
[1] = test system: E. coli ATCC 25922; format: cell-based
Description: Antibacterial activity testing (in solid media).

[2] = test system: E. coli ATCC 25922; experiment: microbe, parasite or virus in culture; settings: Escherichia coli
[3] = test system: A. baumannii ATCC 19606; experiment: microbe, parasite or virus in culture; settings: Acinetobacter baumannii
[4] = test system: MRSA ATCC 43300; experiment: microbe, parasite or virus in culture; settings: Staphylococcus aureus, ATCC43300|MRSA

Compound	inhibition zone [1]	zone of inhibition at 64 µg/mL ([2]; ATCC25922, read-out: Inhibition zone diameter (mm) E. coli ATCC 25922 Rep 1)	zone of inhibition at 64 µg/mL ([2]; ATCC25922, read-out: Inhibition zone diameter (mm) E. coli ATCC 25922 Rep 2)	zone of inhibition at 64 µg/mL ([2]; ATCC25922, read-out: Inhibition zone diameter (mm) E. coli ATCC 25922 Rep 3)	zone of inhibition at 64 µg/mL ([3]; ATCC19606, read-out: Inhibition zone diameter (mm) A. baumannii ATCC 19606 Rep 1)	zone of inhibition at 64 µg/mL ([3]; ATCC19606, read-out: Inhibition zone diameter (mm) A. baumannii ATCC 19606 Rep 2)	zone of inhibition at 64 µg/mL ([3]; ATCC19606, read-out: Inhibition zone diameter (mm) A. baumannii ATCC 19606 Rep 3)	zone of inhibition at 64 µg/mL ([4]; read-out: Inhibition zone diameter (mm) MRSA ATCC 43300 Rep 1)	zone of inhibition at 64 µg/mL ([4]; read-out: Inhibition zone diameter (mm) MRSA ATCC 43300 Rep 2)	zone of inhibition at 64 µg/mL ([4]; read-out: Inhibition zone diameter (mm) MRSA ATCC 43300 Rep 3)
LNSQKFPILNLVQLSATR [I_87_SF]	9-10 mm									
O=C(O)c1cn(C2CC2)c2cc(N3CCNCC3)c(F)cc2c1=O [CIP, Ciprofloxacin]		42 mm	40 mm	42 mm	27 mm	28 mm	27 mm	27 mm	28 mm	29 mm
